{"source": "patent US12472185B2", "about": "“Methods for killing antibiotic tolerant bacteria” (THE PENN STATE RESEARCH FOUNDATION, priority 2020, dated 2025)", "key": {"P. aeruginosa PA14": {"system": "P. aeruginosa PA14", "conditions": "from Chowdhury, Wood, et al., 2016; cited from earlier work"}, "S. aureus ATCC29213": {"system": "S. aureus ATCC29213", "conditions": "from Chowdhury, Wood, et al., 2016; cited from earlier work"}, "[1]": {"system": "P. aeruginosa PA14 exponentially-growing cells", "experiment": "Killing at one MIC in PBS, NPIMA compared with cisplatin", "format": "cell-based, Pseudomonas aeruginosa", "source_text": "FIG. 7. NPIMA compared width cisplatin for killing Pseudomonas aeruginosa, Escherichia coli, and Staphylococcus aureus. Survival of exponentially-growing cells of P. aeruginosa PA14 (a), E. coli (b), and S. aureus (c) treated with one MIC of NPIMA (♦) and cisplatin (●) for 3 hr in PBS. DMSO (▴) and NaClO4 (*) were used as a negative controls. MIC, minimum inhibitory concentration; NPIMA, 5-nitro-3-phenyl-1H-indol-2-yl-methylamine hydrochloride.\nFor bacterial viability, cells were washed twice with 0.85% NaCl, resuspended in 1×PBS, and cell counts were determined via the drop assay (Donegan, Matyac, Seidler, & Porteous, 1991). For human cell viability, pre-cultured human cancer HT-29 cells were dispensed in 98 μl in 96-well plates with approximately 5,000 cells/well. NPIMA was added (2 μl) to produce concentrations of 5, 10, 100, and 200 μM. For controls, Triton X-100 (positive control) and DMSO (negative solvent control), were used, and the medium was used for background. Plates were incubated in a humidified incubator (37° C., 5% CO2) for 24 hr. Cell viability was determined via a cell counting kit (CCK-8 Kit, ab228554; Abcam), and cytotoxicity was determined via the lactate dehydrogenase (LDH) assay (LDH Assay Kit, MK401; Takara)."}, "E. coli K-12 BW25113": {"system": "E. coli K-12 BW25113", "conditions": "from Chowdhury, Wood, et al., 2016; cited from earlier work"}}, "data": [{"smiles": "N.N.[Cl][Pt][Cl]", "note": "[cisplatin]", "values": [{"measurement": "MIC", "setting": "P. aeruginosa PA14", "value": 0.15, "unit": "mM"}, {"measurement": "MIC", "setting": "S. aureus ATCC29213", "value": 1, "unit": "mM"}, {"measurement": "time to eradicate P. aeruginosa cells", "setting": "[1]", "value": 1, "unit": "h"}, {"measurement": "MIC", "setting": "E. coli K-12 BW25113", "value": 0.3, "unit": "mM"}]}]}
